From patent US20250041380A1, “R[…] FOR SARS-COV2 DISEASE” (priority 2021, published 2025)
Where two headings read alike, the source gives them in different places.

Experiments:
liver cells (HepG2) = assay: cells; type: cell-based; details: Spike S1 Protein (20 μg/ml)
Kidney cells (HEK-293) = assay: cells; type: cell-based; details: Spike S1 Protein (100 ng/ml); for inhibition at 0.1 µM / inhibition at 1 µM / inhibition at 10 µM / inhibition at 20 µM: Homo sapiens, HEK293
Lung (A549) cells = assay: in vitro; type: cell-based, Human; details: 48 h
Method: (§1) A549 cells were plated in DMEM+10% FBS at a density of 10,000 cells/well in 96-well culture plates and incubated at 37° C. for 24 h. THP-1 cells were plated in RPMI+10% FBS at a density of 10,000 cells/well in 96-well culture plates and incubated at 37° C. for 24 h. Cells were sera-starved for 24 h. […] Untreated cells were used as control. Cells treated with dexamethasone and hydroxychloroquine were included as positive control. After treatment, cells were incubated in a 5% CO2 incubator for 48 h.

in vitro [1] = type: cell-based, Human; details: human, 1 μM
Method: as §1

Cardiac cells (H9C2) = assay: cells; type: cell-based; details: Spike S1 Protein (5 μg/ml); for inhibition at 0.1 µM / inhibition at 1 µM / inhibition at 10 µM / inhibition at 20 µM: Rattus norvegicus, H9c2
[2] = test system: Endothelial cells (EA.hy926); assay: cells; type: cell-based; details: Spike S1 Protein (1 μg/ml); for inhibition at 0.1 µM / inhibition at 1 µM / inhibition at 10 µM / inhibition at 20 µM: Homo sapiens, EA.hy 926
Bladder cells (T24) = assay: tissue or blood; type: cell-based; details: Spike S1 Protein (5 μg/ml)
Colon cells (HT-29) = assay: cells; type: cell-based; details: Spike S1 Protein (1 μg/ml); for inhibition at 0.1 µM / inhibition at 1 µM / inhibition at 10 µM / inhibition at 20 µM: Homo sapiens, HT-29
[3] = test system: pancreatic cells (PANC-1); assay: cells; type: cell-based; details: Spike S1 Protein (20 μg/ml)+
Bone cells (MG-63) = assay: cells; type: cell-based; details: Spike S1 Protein (10 μg/ml); for inhibition at 0.1 µM / inhibition at 1 µM / inhibition at 10 µM / inhibition at 20 µM: Homo sapiens, MG-63
Immune (THP-1) cells = assay: in vitro; type: cell-based, Human; details: 48 h
Method: as §1

in vitro [4] = type: cell-based, Human; details: human, 1 μM; remark: listed apart in the source
Method: as §1

[5] = 0.1 μM, read-out: % Inhibition (wrt Control), IL-6
[6] = 0.1 μM, read-out: % Inhibition (wrt Control), IL-8
[7] = 1 μM, read-out: % Inhibition (wrt Control), IL-6
[8] = 1 μM, read-out: % Inhibition (wrt Control), IL-8
[9] = 10 μM, read-out: % Inhibition (wrt Control), IL-6
[10] = 10 μM, read-out: % Inhibition (wrt Control), IL-8
[11] = 20 μM, read-out: % Inhibition (wrt Control), IL-6
[12] = 20 μM, read-out: % Inhibition (wrt Control), IL-8
[13] = 0.1 μM, read-out: % Inhibition (IL-6)
[14] = 0.1 μM, read-out: % Inhibition (IL-8)
[15] = 1 μM, read-out: % Inhibition (IL-6)
[16] = 1 μM, read-out: % Inhibition (IL-8)
[17] = 10 μM, read-out: % Inhibition (IL-6)
[18] = 10 μM, read-out: % Inhibition (IL-8)
[19] = 20 μM, read-out: % Inhibition (IL-6)
[20] = 20 μM, read-out: % Inhibition (IL-8)

## CCN(CCO)CCCC(C)Nc1ccnc2cc(Cl)ccc12 (stereo not shown) [Hydroxychloroquine sulphate]
Liver cells (HepG2); 0.1 μM
  Conc. of IL-8: 117.1 pg/mL
Liver cells (HepG2); 1 μM
  Conc. of IL-8: 193.2 pg/mL
Liver cells (HepG2); 10 μM
  Conc. of IL-8: 162.5 pg/mL
Liver cells (HepG2); 20 μM
  Conc. of IL-8: 103.6 pg/mL
Liver cells (HepG2); Homo sapiens, HepG2, 0.1 μM, read-out: % Inhibition (wrt Control ), IL-8
  inhibition at 0.1 µM: 76.5%
Liver cells (HepG2); Homo sapiens, HepG2, 1 μM, read-out: % Inhibition (wrt Control ), IL-8
  inhibition at 1 µM: 61.3%
Liver cells (HepG2); Homo sapiens, HepG2, 10 μM, read-out: % Inhibition (wrt Control ), IL-8
  inhibition at 10 µM: 67.4%
Liver cells (HepG2); Homo sapiens, HepG2, 20 μM, read-out: % Inhibition (wrt Control ), IL-8
  inhibition at 20 µM: 79.2%
Kidney cells (HEK-293); 0.1 μM
  Con. of IL-8: 651.8 pg/mL
  Conc. of IL-6: 94.2 pg/mL
Kidney cells (HEK-293); 1 μM
  Con. of IL-8: 678.2 pg/mL
  Conc. of IL-6: 97.4 pg/mL
Kidney cells (HEK-293); 10 μM
  Con. of IL-8: 959.1 pg/mL
  Conc. of IL-6: 137.7 pg/mL
Kidney cells (HEK-293); 20 μM
  Con. of IL-8: 1809.1 pg/mL
  Conc. of IL-6: 260.0 pg/mL
Kidney cells (HEK-293); [5]
  inhibition at 0.1 µM: 63.8%
Kidney cells (HEK-293); [6]
  inhibition at 0.1 µM: 66%
Kidney cells (HEK-293); [7]
  inhibition at 1 µM: 62.6%
Kidney cells (HEK-293); [8]
  inhibition at 1 µM: 64.6%
Kidney cells (HEK-293); [9]
  inhibition at 10 µM: 47.1%
Kidney cells (HEK-293); [10]
  inhibition at 10 µM: 49.9%
Kidney cells (HEK-293); [11]
  inhibition at 20 µM: 0%
Kidney cells (HEK-293); [12]
  inhibition at 20 µM: 5.5%
Lung (A549) cells; 0.1 μM
  % Viability: 79.0%
Lung (A549) cells; 1 μM
  % Viability: 105.2%
Lung (A549) cells; 5 μM
  % Viability: 101.0%
Lung (A549) cells; 10 μM
  % Viability: 110.9%
Lung (A549) cells; 20 μM
  % Viability: 72.4%
In vitro [1]
  cytotoxicity at 48 h, 1 µM: -5.2%
Cardiac cells (H9C2); 0.1 μM
  Con. of IL-8: 952.1
  Conc. of IL-6: 420.1
Cardiac cells (H9C2); 1 μM
  Con. of IL-8: 768.5
  Conc. of IL-6: 313.4
Cardiac cells (H9C2); 10 μM
  Con. of IL-8: 231.8
  Conc. of IL-6: 125.2
Cardiac cells (H9C2); 20 μM
  Con. of IL-8: 45.5
  Conc. of IL-6: 61.8
Cardiac cells (H9C2); [13]
  inhibition at 0.1 µM: 16.9%
Cardiac cells (H9C2); [14]
  inhibition at 0.1 µM: 33.5%
Cardiac cells (H9C2); [15]
  inhibition at 1 µM: 38%
Cardiac cells (H9C2); [16]
  inhibition at 1 µM: 46.3%
Cardiac cells (H9C2); [17]
  inhibition at 10 µM: 75.2%
Cardiac cells (H9C2); [18]
  inhibition at 10 µM: 83.8%
Cardiac cells (H9C2); [19]
  inhibition at 20 µM: 87.8%
Cardiac cells (H9C2); [20]
  inhibition at 20 µM: 96.8%
[2]; 0.1 μM
  Con. of IL-8: 826.7 pg/mL
  Conc. of IL-6: 145.1 pg/mL
[2]; 1 μM
  Con. of IL-8: 1026.6 pg/mL
  Conc. of IL-6: 200.3 pg/mL
[2]; 10 μM
  Con. of IL-8: 1756.7 pg/mL
  Conc. of IL-6: 64.0 pg/mL
[2]; 20 μM
  Con. of IL-8: 1573.3 pg/mL
  Conc. of IL-6: 58.9 pg/mL
[2]; 0.1 μM, read-out: % Inhibition (wrt, IL-6)
  inhibition at 0.1 µM: 56.9%
[2]; 0.1 μM, read-out: % Inhibition (wrt, IL-8)
  inhibition at 0.1 µM: 48.8%
[2]; 1 μM, read-out: % Inhibition (wrt, IL-6)
  inhibition at 1 µM: 40.5%
[2]; 1 μM, read-out: % Inhibition (wrt, IL-8)
  inhibition at 1 µM: 36.5%
[2]; 10 μM, read-out: % Inhibition (wrt, IL-6)
  inhibition at 10 µM: 81%
[2]; 10 μM, read-out: % Inhibition (wrt, IL-8)
  inhibition at 10 µM: 0%
[2]; 20 μM, read-out: % Inhibition (wrt, IL-6)
  inhibition at 20 µM: 82.5%
[2]; 20 μM, read-out: % Inhibition (wrt, IL-8)
  inhibition at 20 µM: 2.6%
Bladder cells (T24); 0.1 μM
  Con. of IL-8: 2661.3
  Conc. of IL-6: 432.0
Bladder cells (T24); [13]
  inhibition at 0.1 µM: 25.2%
Bladder cells (T24); [14]
  inhibition at 0.1 µM: 37.7%
Bladder cells (T24); 1 μM
  Con. of IL-8: 2527.7
  Conc. of IL-6: 410.8
Bladder cells (T24); [15]
  inhibition at 1 µM: 28.9%
Bladder cells (T24); [16]
  inhibition at 1 µM: 40.9%
Bladder cells (T24); 10 μM
  Con. of IL-8: 2679.5
  Conc. of IL-6: 430.2
Bladder cells (T24); [17]
  inhibition at 10 µM: 25.5%
Bladder cells (T24); [18]
  inhibition at 10 µM: 37.3%
Bladder cells (T24); 20 μM
  Con. of IL-8: 2470.0
  Conc. of IL-6: 415.8
Bladder cells (T24); [19]
  inhibition at 20 µM: 28%
Bladder cells (T24); [20]
  inhibition at 20 µM: 42.2%
Colon cells (HT-29); 0.1 μM
  Con. of IL-8: 49.1 pg/mL
  Conc. of IL-6: 114.8 pg/mL
Colon cells (HT-29); 1 μM
  Con. of IL-8: 92.3 pg/mL
  Conc. of IL-6: 91.1 pg/mL
Colon cells (HT-29); 10 μM
  Con. of IL-8: 99.5 pg/mL
  Conc. of IL-6: 125.2 pg/mL
Colon cells (HT-29); 20 μM
  Con. of IL-8: 37.6 pg/mL
  Conc. of IL-6: 104.2 pg/mL
Colon cells (HT-29); [5]
  inhibition at 0.1 µM: 51.3%
Colon cells (HT-29); [6]
  inhibition at 0.1 µM: 92.7%
Colon cells (HT-29); [7]
  inhibition at 1 µM: 61.4%
Colon cells (HT-29); [8]
  inhibition at 1 µM: 86.2%
Colon cells (HT-29); [9]
  inhibition at 10 µM: 46.9%
Colon cells (HT-29); [10]
  inhibition at 10 µM: 85.2%
Colon cells (HT-29); [11]
  inhibition at 20 µM: 55.8%
Colon cells (HT-29); [12]
  inhibition at 20 µM: 94.4%
[3]; 0.1 μM
  Conc. of IL-8: 214 pg/mL
[3]; 1 μM
  Conc. of IL-8: 169.9 pg/mL
[3]; 10 μM
  Conc. of IL-8: 200.5 pg/mL
[3]; 20 μM
  Conc. of IL-8: 203 pg/mL
[3]; Homo sapiens, PANC-1, 0.1 μM, read-out: % Inhibition (wrt Control ), IL-8
  inhibition at 0.1 µM: 71.3%
[3]; Homo sapiens, PANC-1, 1 μM, read-out: % Inhibition (wrt Control ), IL-8
  inhibition at 1 µM: 77.2%
[3]; Homo sapiens, PANC-1, 10 μM, read-out: % Inhibition (wrt Control ), IL-8
  inhibition at 10 µM: 73.1%
[3]; Homo sapiens, PANC-1, 20 μM, read-out: % Inhibition (wrt Control ), IL-8
  inhibition at 20 µM: 72.8%
Bone cells (MG-63); 0.1 μM
  Con. of IL-8: 703.3 pg/mL
  Conc. of IL-6: 136.5 pg/mL
Bone cells (MG-63); 1 μM
  Con. of IL-8: 660.0 pg/mL
  Conc. of IL-6: 171.8 pg/mL
Bone cells (MG-63); 10 μM
  Con. of IL-8: 774.4 pg/mL
  Conc. of IL-6: 233.8 pg/mL
Bone cells (MG-63); 20 μM
  Con. of IL-8: 1388.3 pg/mL
  Conc. of IL-6: 354.0 pg/mL
Bone cells (MG-63); [5]
  inhibition at 0.1 µM: 14.7%
Bone cells (MG-63); [6]
  inhibition at 0.1 µM: 0.6%
Bone cells (MG-63); [7]
  inhibition at 1 µM: -7.4%
Bone cells (MG-63); [8]
  inhibition at 1 µM: 6.8%
Bone cells (MG-63); [9]
  inhibition at 10 µM: -46.1%
Bone cells (MG-63); [10]
  inhibition at 10 µM: -9.4%
Bone cells (MG-63); [11]
  inhibition at 20 µM: -121%
Bone cells (MG-63); [12]
  inhibition at 20 µM: -96.2%
Immune (THP-1) cells; 0.1 μM
  % Viability: 113.4%
Immune (THP-1) cells; 1 μM
  % Viability: 105.2%
Immune (THP-1) cells; 5 μM
  % Viability: 95.8%
Immune (THP-1) cells; 10 μM
  % Viability: 104.8%
Immune (THP-1) cells; 20 μM
  % Viability: 89.3%
In vitro [4]
  cytotoxicity at 48 h, 1 µM: -5.2%
